Experimental data from US11535594B2, “Microbiocidal picolinamide derivatives” (Syngenta Participations AG, priority 2017, dated 2022).

How the values were obtained:
[1] = test system: Botryotinia fuckeliana (Botrytis cinerea); assay: Botryotinia fuckeliana (Botrytis cinerea) / liquid culture (gray mould); format: cell-based; details: Vogels broth, 24° C., 3-4 days after application, compared to untreated checks, read-out: disease control (inhibition of growth, photometric)
Method: (§1) Botryotinia fuckeliana (Botrytis cinerea)/Liquid Culture (Gray Mould) Conidia of the fungus from cryogenic storage are directly mixed into nutrient broth (Vogels broth). After placing a (DMSO) solution of test compound into a microtiter plate (96-well format), the nutrient broth containing the fungal spores is added. The test plates are incubated at 24° C. and the inhibition of growth is determined photometrically 3-4 days after application.

[2] = test system: Glomerella Lagenarium (Colletotrichum lagenarium); assay: Glomerella lagenarium (Colletotrichum lagenarium) / liquid culture (anthracnose); format: cell-based; details: Colletotrichum orbiculare, PDB potato dextrose broth, 24° C., 3 to 4 days after application, compared to untreated checks, read-out: disease control (inhibition of growth, photometric)
Method: as §1, with “Glomerella Lagenarium (Colletotrichum lagenarium)/Liquid” for “Botryotinia fuckeliana (Botrytis cinerea)/Liquid”, “(Anthracnose)” for “(Gray Mould)”, “(PDB potato dextrose” for “(Vogels”, “measured” for “determined”, “3 to 4” for “3-4”

[3] = test system: Mycosphaerella arachidis (Cercospora arachidicola); assay: Mycosphaerella arachidis (Cercospora arachidicola) / liquid culture (early leaf spot); format: cell-based; details: PDB potato dextrose broth, 24° C., 4-5 days after application, compared to untreated checks, read-out: disease control (inhibition of growth, photometric)
Method: as §1, with “Mycosphaerella arachidis (Cercospora arachidicola)/Liquid” for “Botryotinia fuckeliana (Botrytis cinerea)/Liquid”, “(Early Leaf Spot)” for “(Gray Mould)”, “(PDB potato dextrose” for “(Vogels”, “4-5” for “3-4”

[4] = test system: Mycosphaerella Graminicola (Septoria tritici); assay: Mycosphaerella graminicola (Septoria tritici) / liquid culture (Septoria blotch); format: cell-based; details: Zymoseptoria tritici, PDB potato dextrose broth, 24° C., 4 to 5 days after application, compared to untreated checks, read-out: disease control (inhibition of growth, photometric)
Method: as §1, with “Mycosphaerella Graminicola (Septoria tritici)/Liquid” for “Botryotinia fuckeliana (Botrytis cinerea)/Liquid”, “(Septoria Blotch)” for “(Gray Mould)”, “(PDB potato dextrose” for “(Vogels”, “4 to 5” for “3-4”

[5] = test system: Phaeosphaeria nodorum (Septoria nodorum); assay: Phaeosphaeria nodorum (Septoria nodorum) / wheat / leaf disc preventative (glume blotch); format: in vivo; details: Parastagonospora nodorum, foliar, 120 h, wheat leaf segments cv. Kanzler, inoculated 2 days after application, assessed 5-7 days after application, compared to untreated, read-out: disease control
Method: Phaeosphaeria nodorum (Septoria nodorum)/Wheat/Leaf Disc Preventative (Glume Blotch) Wheat leaf segments cv. Kanzler are placed on agar in a multiwell plate (24-well format) and sprayed with the formulated test compound diluted in water. The leaf disks are inoculated with a spore suspension of the fungus 2 days after application. The inoculated test leaf disks are incubated at 20° C. and 75% rh under a light regime of 12 h light/12 h darkness in a climate cabinet and the activity of a compound is assessed as percent disease control compared to untreated when an appropriate level of disease damage appears in untreated check leaf disks (5-7 days after application).

[6] = test system: Puccinia Recondite f. Sp. Tritici; assay: Puccinia recondita f. sp. tritici / wheat / leaf disc preventative (brown rust); format: in vivo; details: foliar, wheat leaf segments cv. Kanzler, inoculated 1 day after application, assessed 7-9 days after application, compared to untreated, read-out: disease control
Method: Puccinia Recondite f. Sp. Tritici/Wheat/Leaf Disc Preventative (Brown Rust) Wheat leaf segments cv. Kanzler are placed on agar in multiwell plates (24-well format) and sprayed with the formulated test compound diluted in water. The leaf disks are inoculated with a spore suspension of the fungus 1 day after application. The inoculated leaf segments are incubated at 19° C. and 75% rh under a light regime of 12 h light/12 h darkness in a climate cabinet and the activity of a compound is assessed as percent disease control compared to untreated when an appropriate level of disease damage appears in untreated check leaf segments (7-9 days after application).

[7] = test system: Monographella nivalis (Microdochium nivale); assay: Monographella nivalis (Microdochium nivale) / liquid culture (foot rot cereals); format: cell-based; details: PDB potato dextrose broth, 24° C., 4-5 days after application, compared to untreated checks, read-out: disease control (inhibition of growth, photometric)
Method: as §1, with “Monographella nivalis (Microdochium nivale)/Liquid” for “Botryotinia fuckeliana (Botrytis cinerea)/Liquid”, “(Foot Rot Cereals)” for “(Gray Mould)”, “(PDB potato dextrose” for “(Vogels”, “4-5” for “3-4”

[8] = test system: Magnaporthe grisea (Pyricularia oryzae); assay: whole plant or invertebrate; format: in vivo; details: foliar, read-out: disease control
[9] = test system: Blumeria graminis f. Sp. Tritici (Erysiphe Graminis f. Sp. Tritici); assay: Blumeria graminis f. sp. tritici / wheat / leaf disc preventative (powdery mildew on wheat); format: in vivo; details: 200 ppm; wheat leaf segments cv. Kanzler, inoculated 1 day after application, assessed 6-8 days after application, compared to untreated
Method: Blumeria graminis f. Sp. Tritici (Erysiphe Graminis f. Sp. Tritici)/Wheat/Leaf Disc Preventative (Powdery Mildew on Wheat)
Wheat leaf segments cv. Kanzler are placed on agar in a multiwell plate (24-well format) and sprayed with the test compound formulated with DMSO and Tween20 and diluted in water. The leaf disks are inoculated by shaking powdery mildew infected plants above the test plates 1 day after application. The inoculated leaf disks are incubated at 20° C. and 60% rh under a light regime of 24 h darkness followed by 12 h light/12 h darkness in a climate chamber and the activity of a compound is assessed as percent disease control compared to untreated when an appropriate level of disease damage appears on untreated check leaf segments (6-8 days after application).

Alternaria solani = Alternaria solani / tomato / leaf disc (early blight); format: in vivo; details: 200 ppm; tomato leaf disks cv. Baby, inoculated 2 days after application, assessed 5-7 days after application, compared to untreated
Method: Alternaria solani/Tomato/Leaf Disc (Early Blight) Tomato leaf disks cv. Baby are placed on agar in multiwell plates (24-well format) and sprayed with the formulated test compound diluted in water. The leaf disks are inoculated with a spore suspension of the fungus 2 days after application. The inoculated leaf disks are incubated at 23° C./21° C.

SMILES | inhibition at 200 ppm [1] | inhibition at 200 ppm [2] | inhibition at 200 ppm [3] | inhibition at 200 ppm [4] | pest or weed control at 200 ppm [5] | pest or weed control at 200 ppm [6] | inhibition at 200 ppm [7] | pest or weed control at 200 ppm [8] | disease control [9] | control of Alternaria solani (Alternaria solani)
COc1ccc(C(c2ccc(OC)cc2)N(C)OC(=O)[C@H](C)NC(=O)c2nccc(OC)c2O)cc1 [I.ab.01, [bis(4-methoxy phenyl)methyl-methyl-amino] (2S)-2-[(3-hydroxy-4-methoxy-pyridine-2-carbonyl)amino]propanoate] | ≥ 80% | ≥ 80% | ≥ 80% | ≥ 80% | ≥ 80% | ≥ 80% |  |  |  | 
CCOc1ccc(C(c2ccc(OCC)cc2)N(C)OC(=O)[C@H](C)NC(=O)c2nccc(OC)c2O)cc1 [I.ac.01, [bis(4-ethoxy phenyl)methyl-methyl-amino] (2S)-2-[(3-hydroxy-4-methoxy-pyridine-2-carbonyl)amino]propanoate] | ≥ 80% | ≥ 80% | ≥ 80% | ≥ 80% | ≥ 80% | ≥ 80% | ≥ 80% |  |  | 
COc1ccnc(C(=O)N[C@@H](C)C(=O)ON(C)C(c2ccccc2)c2ccccc2)c1O [I.m.01, [benzhydryl(methyl)amino] (2S)-2-[(3-hydroxy-4-methoxy-pyridine-2-carbonyl)amino]propanoate] | ≥ 80% | ≥ 80% | ≥ 80% | ≥ 80% | ≥ 80% | ≥ 80% | ≥ 80% | ≥ 80% |  | 
CCC(c1ccccc1)(c1ccccc1)N(C)OC(=O)[C@H](C)NC(=O)c1nccc(OC)c1O [I.m.03, [1,1-diphenylpropyl (methyl)amino] (2S)-2-[(3-hydroxy-4-methoxy-pyridine-2-carbonyl)amino]propanoate] | ≥ 80% |  | ≥ 80% | ≥ 80% | ≥ 80% |  | ≥ 80% |  |  | 
COc1ccnc(C(=O)N[C@@H](C)C(=O)ON(C)C(c2ccccc2)c2ccccc2)c1OC(C)=O [I.m.13, [benzhydryl(methyl)amino] (2S)-2-[(3-acetoxy-4-methoxy-pyridine-2-carbonyl)amino]propanoate] |  |  | ≥ 80% | ≥ 80% | ≥ 80% | ≥ 80% |  | ≥ 80% | at least 80% | 
COc1ccnc(C(=O)N[C@@H](C)C(=O)ON(C)C(C)(c2ccccc2)c2ccc(Cl)cc2)c1O (stereo partly drawn) [I.o.02, [[1-(4-chlorophenyl)-1-phenyl-ethyl]-methyl-amino] (2S)-2-[(3-hydroxy-4-methoxy-pyridine-2-carbonyl)amino]propanoate] |  |  | ≥ 80% | ≥ 80% | ≥ 80% | ≥ 80% |  | ≥ 80% |  | at least 80%
COc1ccnc(C(=O)N[C@@H](C)C(=O)ON(C)C(C)(c2ccc(F)cc2)c2ccc(F)cc2)c1O [I.s.02, [1,1-bis(4-fluorophenyl)ethyl-methyl-amino] (2S)-2-[(3-hydroxy-4-methoxy-pyridine-2-carbonyl)amino] propanoate] | ≥ 80% | ≥ 80% | ≥ 80% | ≥ 80% | ≥ 80% |  |  | ≥ 80% |  | 
COc1ccnc(C(=O)N[C@@H](C)C(=O)ON(C)C(c2ccc(F)cc2)c2ccc(Cl)cc2)c1O (stereo partly drawn) [I.t.01, [[(4-chlorophenyl)-(4-fluorophenyl)methyl]-methyl-amino] (2S)-2-[(3-hydroxy-4-methoxy-pyridine-2-carbonyl)amino] propanoate] | ≥ 80% | ≥ 80% | ≥ 80% |  | ≥ 80% | ≥ 80% |  |  |  | 
COc1ccnc(C(=O)N[C@@H](C)C(=O)ON(C)C(C)(c2ccc(Cl)cc2)c2ccc(Cl)cc2)c1O [I.u.02, [1,1-bis(4-chlorophenyl)ethyl-methyl-amino] (2S)-2-[(3-hydroxy-4-methoxy-pyridine-2-carbonyl)amino]propanoate] | ≥ 80% | ≥ 80% | ≥ 80% | ≥ 80% | ≥ 80% |  | ≥ 80% |  |  | 
COc1ccnc(C(=O)N[C@@H](C)C(=O)ON(C)C(C)(c2ccc(Cl)cc2)c2ccc(Cl)cc2)c1OC(C)=O [I.u.14, [1,1-bis(4-chlorophenyl)ethyl-methyl-amino] (2S)-2-[(3-acetoxy-4-methoxy-pyridine-2-carbonyl)amino]propanoate] | ≥ 80% | ≥ 80% | ≥ 80% | ≥ 80% | ≥ 80% | ≥ 80% | ≥ 80% | ≥ 80% |  | 
COc1ccnc(C(=O)N[C@@H](C)C(=O)ON(C)C(C)(c2ccc(Cl)cc2)c2ccc(Cl)cc2)c1OCOC(=O)C(C)C [I.u.26, [2-[[(1S)-2-[1,1-bis(4-chlorophenyl)ethyl-methyl-amino]oxy-1-methyl-2-oxo-ethyl]carbamoyl]-4-methoxy-3-pyridyl] oxymethyl 2-methylpropanoate] | ≥ 80% |  | ≥ 80% | ≥ 80% |  | ≥ 80% | ≥ 80% |  |  | 
COc1ccnc(C(=O)N[C@@H](C)C(=O)ON(C)C(c2ccc(C)cc2)c2ccc(C)cc2)c1O [I.v.01, [bis-p-tolylmethyl (methyl)amino] (2S)-2-[(3-hydroxy-4-methoxy-pyridine-2-carbonyl)amino]propanoate] | ≥ 80% | ≥ 80% | ≥ 80% | ≥ 80% |  | ≥ 80% | ≥ 80% |  |  | 
